Results as given in patent publication EP4722219A1 (Gan & Lee Pharmaceuticals Co., Ltd., priority 2023, dated 2024).

Biological target: T1, AR protein (Homo sapiens, UniProt P10275)
T1 construct: host or cells: VCaP
T1 sequence (P10275 1-920): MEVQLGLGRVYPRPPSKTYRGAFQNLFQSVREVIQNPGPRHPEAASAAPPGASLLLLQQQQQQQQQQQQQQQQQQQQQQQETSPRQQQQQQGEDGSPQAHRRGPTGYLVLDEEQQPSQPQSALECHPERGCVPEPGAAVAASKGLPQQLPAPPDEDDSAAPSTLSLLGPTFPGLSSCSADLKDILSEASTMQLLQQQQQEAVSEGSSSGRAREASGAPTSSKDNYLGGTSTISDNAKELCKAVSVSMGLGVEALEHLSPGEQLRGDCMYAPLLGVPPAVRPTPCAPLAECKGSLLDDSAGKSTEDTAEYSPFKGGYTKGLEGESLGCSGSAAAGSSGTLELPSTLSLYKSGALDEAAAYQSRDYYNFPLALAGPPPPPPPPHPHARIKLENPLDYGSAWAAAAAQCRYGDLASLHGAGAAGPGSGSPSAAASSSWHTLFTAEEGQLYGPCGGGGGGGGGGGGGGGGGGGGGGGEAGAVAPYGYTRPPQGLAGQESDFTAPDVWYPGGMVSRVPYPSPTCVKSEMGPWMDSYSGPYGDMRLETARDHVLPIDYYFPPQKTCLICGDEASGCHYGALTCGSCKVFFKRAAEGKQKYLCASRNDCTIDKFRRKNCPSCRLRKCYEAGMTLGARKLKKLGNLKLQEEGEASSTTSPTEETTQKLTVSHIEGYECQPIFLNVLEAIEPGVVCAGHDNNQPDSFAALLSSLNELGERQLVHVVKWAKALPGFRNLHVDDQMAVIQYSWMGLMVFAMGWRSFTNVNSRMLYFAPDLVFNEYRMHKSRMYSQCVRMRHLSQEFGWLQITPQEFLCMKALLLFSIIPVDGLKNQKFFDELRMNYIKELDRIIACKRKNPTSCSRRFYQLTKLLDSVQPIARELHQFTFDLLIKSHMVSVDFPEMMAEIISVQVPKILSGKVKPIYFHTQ
Assay: AR protein degradation in VCaP cells (Western blot)
Type: cell-based
Settings: 8h
In short: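 AR-positive VCaP human prostate cancer cells grown in DMEM with 10% FBS were plated in six-well plates at 3×10^5 cells/well and incubated overnight. Compounds were then added at 1 µL/well alongside a solvent control and incubated for 8h. Lysates in RIPA buffer with protease inhibitor were quantified by BCA and run by SDS-PAGE. AR was detected by Western blot, and degradation was calculated from band grayscale normalized to GAPDH.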

Structure (SMILES) | Degradation rate of AR protein in VCaP cells (0.5 nM) [%] | Degradation rate of AR protein in VCaP cells (5 nM) [%] | AR protein degradation rate at fixed concentration (%) at 0.0005 µM (0.5 nM) [%] | AR protein degradation rate at fixed concentration (%) at 0.005 µM (5 nM) [%]
N#Cc1ccc(O[C@H]2CC[C@H](NC(=O)c3ccc(N4CCC(N5CC6(CCC7(CC6)COc6c7ccc7c6CN(C6CCC(=O)NC6=O)C7=O)C5)CC4)nn3)CC2)cc1Cl (relative stereo) [A-P-1, N-((1r,4r)-4-(3-chloro-4-cyanophenoxy)cyclohexyl)-6-(4-(7'-(2,6-dioxopiperidin-3-yl)-6'-oxo-7',8'-dihydro-2'-H,6'-H-dihydro[azetidine-3,1'-cyclohexane-4',3"-furo[2,3-e]isoindol]-1-yl)piperidin-1-yl)pyridazine-3-carboxamide] | 69 | 82 | – | –
COc1cc(O[C@H]2C(C)(C)[C@H](NC(=O)c3ccc(N4CCC(CN5CC6(CCC7(CC6)COc6c7ccc7c6CN(C6CCC(=O)NC6=O)C7=O)C5)CC4)cc3)C2(C)C)ccc1C#N (relative stereo) [A-P-3] | 53 | 87 | – | –
COc1cc(O[C@H]2C(C)(C)[C@H](NC(=O)c3ccc(N4CCC(C)(CN5CC6(CCC7(CC6)COc6c7ccc7c6CN(C6CCC(=O)NC6=O)C7=O)C5)CC4)cc3)C2(C)C)ccc1C#N (relative stereo) [A-P-4] | 50 | 78 | – | –
COc1cc(O[C@H]2C(C)(C)[C@H](NC(=O)c3ccc(N4CCC(F)(CN5CC6(CCC7(CC6)COc6c7ccc7c6CN(C6CCC(=O)NC6=O)C7=O)C5)CC4)cc3)C2(C)C)ccc1C#N (relative stereo) [A-P-5] | 38 | 73 | – | –
N#Cc1ccc(O[C@H]2CC[C@H](NC(=O)c3ccc(N4CCC(N5CCC6(CC5)CCC5(CC6)COc6c5ccc5c6CN(C6CCC(=O)NC6=O)C5=O)CC4)nn3)CC2)cc1Cl (relative stereo) [A-P-7, N-((1r,4r)-4-(3-chloro-4-cyanophenoxy)cyclohexy 1)-6-(4-(7-(2,6-dioxopiperidin-3-yl)-6-oxo-7,8-dihydro-2H,6H-dipyridyl[2,3-e]isoindole-3,1'-cyclohexane-4',4'"-piperidin]-1"-yl)pyridazine-3-carboxamide] | 79 | 89 | – | –
Cn1c(=O)n(C2CCC(=O)NC2=O)c2cc3c(cc21)C1(CCN(C2CC4(CCN(c5ccc(C(=O)N[C@H]6CC[C@H](Oc7ccc(C#N)c(Cl)c7)CC6)nn5)CC4)C2)CC1)CO3 (relative stereo) [A-P-12, N-((1r,4r)-4-(3-chloro-4-cyanophenoxy)cyclohexy 1)-6-(2-(3-(2,6-dioxopiperidin-3-yl)-1-methyl-2-oxo-2,3-dihydro-1H,6H-spiro[benzofuro[5,6-d]imidazole-7,4'-piperidin]-1'-yl)-7-azaspiro[3.5]nonan-7-yl)pyridazine-3-carboxamide] | 88 | 88 | – | –
COc1cc(O[C@H]2C(C)(C)[C@H](NC(=O)c3ccc(N4CCC5(CC4)CC(N4CCC6(CC4)COc4cc7c(cc46)n(C)c(=O)n7C4CCC(=O)NC4=O)C5)nn3)C2(C)C)ccc1C#N (relative stereo) [A-P-14, N-((1r,3r)-3-(4-cyano-3-methoxyphenoxy)-2,2,4,4-tetramethylcyclobutyl)-6-(2-(3-(2,6-dioxopiperidin-3-yl)-1-methyl-2-oxo-2,3-dihydro-1H,6H-spiro[benzofuro[5,6-d]imidazole-7,4'-piperidin]-1'-yl)-7-azaspiro[3.5]nonan-7-yl)pyridazine-3-carboxamide] | 63 | 82 | – | –
COc1cc(O[C@H]2C(C)(C)[C@H](NC(=O)c3ccc(N4CCC(C)(CN5CCC6(CC5)COc5cc7c(cc56)n(C)c(=O)n7C5CCC(=O)NC5=O)CC4)cc3)C2(C)C)ccc1C#N (relative stereo) [A-P-16] | 66 | 83 | – | –
COc1cc(O[C@H]2CC[C@H](NC(=O)c3ccc(N4CCC(CN5CCC6(CC5)COc5cc7c(cc56)n(C)c(=O)n7C5CCC(=O)NC5=O)CC4)nn3)CC2)ccc1C#N (relative stereo) [A-P-17] | 81 | 75 | – | –
COc1cc(O[C@H]2C(C)(C)[C@H](NC(=O)c3ccc(N4CCC5(CC4)CC(N4CCC6(CC4)COc4cc7c(cc46)n(C)c(=O)n7C4CCC(=O)NC4=O)C5)cc3)C2(C)C)ccc1C#N (relative stereo) [A-P-21] | 57 | 71 | – | –
COc1cc(O[C@H]2C(C)(C)[C@H](NC(=O)c3ccc(N4CCC(N5CC6(CCC7(CC6)COc6c7ccc7c6CN(C6CCC(=O)NC6=O)C7=O)C5)CC4)cc3)C2(C)C)ccc1C#N (stereo partly drawn) [A-P-2] | – | – | 50 | 83
Cn1c(=O)n(C2CCC(=O)NC2=O)c2cc3c(cc21)C1(CCN(CC2CCN(c4ccc(C(=O)N[C@H]5CC[C@H](Oc6ccc(C#N)c(Cl)c6)CC5)nn4)CC2)CC1)CO3 (stereo partly drawn) [A-P-10] | – | – | 75 | 78
COc1cc(O[C@H]2C(C)(C)[C@H](NC(=O)c3ccc(N4CCC(F)(CN5CCC6(CC5)COc5cc7c(cc56)n(C)c(=O)n7C5CCC(=O)NC5=O)CC4)cc3)C2(C)C)ccc1C#N (stereo partly drawn) [A-P-13] | – | – | 44 | 77
COc1cc(O[C@H]2CC[C@H](NC(=O)c3ccc(N4CCC(N5CCC6(CC5)COc5cc7c(cc56)n(C)c(=O)n7C5CCC(=O)NC5=O)CC4)nn3)CC2)ccc1C#N (stereo partly drawn) [A-P-18, N-((1r,4r)-4-(4-cyano-3-methoxyphenoxy)cyclohexyl)-6-(4-(3-(2,6-dioxopyridyl-3-yl)-1-methyl-2-oxo-2,3-dihydro-1H,6H-spiro[benzofuro[5,6-d]imidazole-7,4'-piperidin]-1'-yl)piperidin-1-yl)pyridazine-3-carboxamide] | – | – | 76 | 73
COc1cc(O[C@H]2CC[C@H](NC(=O)c3ccc(N4CCC(CN5CCC6(CC5)COc5c6ccc6c5n(C)c(=O)n6C5CCC(=O)NC5=O)CC4)nn3)CC2)ccc1C#N (stereo partly drawn) [A-P-22] | – | – | 84 | 69
Cn1c(=O)n(C2CCC(=O)NC2=O)c2ccc3c(c21)OCC31CCN(C2CCN(c3ccc(C(=O)N[C@H]4CC[C@H](Oc5ccc(C#N)c(Cl)c5)CC4)nn3)CC2)CC1 (stereo partly drawn) [A-P-23] | – | – | 85 | 74
Cn1c(=O)n(C2CCC(=O)NC2=O)c2ccc3c(c21)OCC31CCN(CC2CCN(c3ccc(C(=O)N[C@H]4CC[C@H](Oc5ccc(C#N)c(Cl)c5)CC4)nn3)CC2)CC1 (stereo partly drawn) [A-P-24] | – | – | 85 | 85
Cn1c(=O)n(C2CCC(=O)NC2=O)c2ccc3c(c21)OCC31CCN(C2CC3(CCN(c4ccc(C(=O)N[C@H]5CC[C@H](Oc6ccc(C#N)c(Cl)c6)CC5)nn4)CC3)C2)CC1 (stereo partly drawn) [A-P-25] | – | – | 91 | 90
C[C@H]1CC2(CCN(c3ccc(N4CCC(CN5CCC6(CC5)COc5ccc7c(c56)n(C)c(=O)n7C5CCC(=O)NC5=O)CC4)cc3)CC2)CN1c1ccc(C#N)c(Cl)c1 (stereo partly drawn) [A-P-26, 2-chloro-4-((3 S)-8-(4-(4-((3-((2,6-dioxopiperidin-3-yl))-1-methyl-2-oxo-2,3-dihydro-1H,7H-spiro[benzofuro[4,5-d]imidazole-8,4'-piperidin]-1'-yl)methyl)piperidin-1-yl)phenyl)-3-methyl-2,8-diazaspiro[4.5]decan-2-yl)benzonitrile] | – | – | -43 | 18
COc1cc(O[C@H]2C(C)(C)[C@H](NC(=O)c3ccc(N4CCC(N5CCC6(CC5)COc5c6ccc6c5n(C)c(=O)n6C5CCC(=O)NC5=O)CC4)cc3)C2(C)C)ccc1C#N (stereo partly drawn) [A-P-29] | – | – | 70 | 68
COc1cc(O[C@H]2C(C)(C)[C@H](NC(=O)c3ccc(N4CCC(CN5CCC6(CCc7cc(C(=O)N[C@H]8CCC(=O)NC8=O)c(F)cc7O6)CC5)CC4)cc3)C2(C)C)ccc1C#N [A-P-30] | 36 | 71 | – | –
